According to publication PMC12766724, “Synthesis, Anthelmintic Activity, and Mechanism of Action of 5‑Aryl‑1H‑indoles” (Journal of Agricultural and Food Chemistry, 2025):
In brackets after ≈: the same amount, converted by molar mass.

Legend:
[1] = test system: Meloidogyne incognita; parameters: method as in not printed (reference number lost in b5); details: ref not printed (reference number lost in b5); cited from earlier work
[2] = test system: C. elegans N2 wild-type; assay: Chitinase assay (reproductive capacity); type: in vivo, Caenorhabditis elegans; details: Caenorhabditis elegans
Description: The effect of compounds on C. elegans was evaluated using the Chitinase assay as we described previously.
After exposing L1 larvae to the compounds for 4 days, we observed the populations under a microscope and measured the Chitinase activity. The larvae produce the enzyme while hatching, and its activity is indicative of the reproductive capacity of the worms. Populations that fail to reproduce due to acute or reproductive toxicity or developmental abnormalities are detected.

[3] = test system: age unsynchronized Ditylenchus destructor; assay: Motility on WMicrotracker ONE; type: in vivo
Description: Populations of D. destructor, kindly provided by Central Institute for Supervising and Testing in Agriculture, the Ministry of Agriculture of the Czech Republic, were maintained according to the protocol previously described here.
(§1) The effect of compounds on motility of H. contortus, D. destructor, and H. schachtii was evaluated using the WMicrotracker ONE platform according to previously published protocols. ,
(§2) The instrument evaluates the activity of small animals by counting how many times infrared light microbeams passing through the wells of a microtiter plate are interrupted. In age-unsynchronized populations of D. destructor, we observed reduced motility of worm populations treated with the halogenated derivatives i-19, i-20, and i-21 (Figures A, S2.1A, S2.2A and Table S2.1). […] The decreases in mean activity counts after 72 h of treatment at 100 μM were 85% and 97%, respectively.

[4] = test system: Heterodera schachtii second-stage juveniles (J2); assay: Motility on WMicrotracker ONE; type: in vivo
Description: H. schachtii was maintained on mustard (Sinapsis alba cv. Albatros) roots grown in vitro on modified KNOP medium according to the previously published protocols. ,
as §1, §2

[5] = test system: Arabidopsis thaliana Col-0; assay: Germination rate and phytotoxicity; type: in vivo; details: for average fraction of germinated seeds: 5 DPS; for main root length / plant weight: 10 DPS
Description: Wild-type A. thaliana (Col-0 ecotype) seeds were sterilized with 70% EtOH with 0.1% Tween-20 solution (2 × 1 mL) for 10 min, rinsed with 96% EtOH (1 × 1 mL) for 10 min, and kept in the fridge (4 °C in the dark). Seeds were sown on a sterile 1/2 MS medium supplemented with 0.3% DMSO as a mock and test compounds at 5, 10, 50, and 100 μM concentrations in 0.3% DMSO. Plates were kept in long-day light conditions (22 °C/20 °C, 16 h light/8 h dark, 100 μmol m^–2 s^–1). After 5 days, the germination rate was evaluated. After an additional 5 days, primary root growth was measured with ImageJ software (https://imagej.nih.gov/ij/), and seedlings were weighted.

[6] = test system: Skin fibroblasts (BJ); assay: Resazurin assay, 3-day treatment; type: cell-based, human; details: BJ
Description: Skin fibroblasts (BJ) were obtained from the American Type Culture Collection (ATCC, Manassas, VA), while human keratinocytes (HaCaT) were sourced from the German Cancer Research Center in Heidelberg, Germany. Cells were cultured in a standard DMEM medium from Sigma-Aldrich, supplemented with 10% fetal bovine serum, 2 mM glutamine, 100 U/mL penicillin, and 100 μg/mL streptomycin. Cultures were maintained under standard conditions (37 °C, 5% CO2, humidified atmosphere) and subcultured two to three times per week. We assessed the effect of 3-day compound treatments on cell viability using a resazurin reduction assay measuring mitochondrial activity. Approximately 5,000 cells in 80 μL of culture medium were seeded into the wells of a 96-well plate. Twenty-four hours later, 20 μL of 5-fold concentrated test compound solutions was added and tested across three concentrations prepared through 2-fold serial dilutions. The highest final concentration was 40 μM. After 72 h, we added an 11-fold concentrated resazurin solution to the wells, achieving a final concentration of 0.0125 μM. Fluorescence (ex = 570 nm, em = 610 nm) was measured after 3 h of incubation. […]

[7] = test system: human keratinocytes (HaCaT); assay: Resazurin assay, 3-day treatment; type: cell-based
Description: Skin fibroblasts (BJ) were obtained from the American Type Culture Collection (ATCC, Manassas, VA), while human keratinocytes (HaCaT) were sourced from the German Cancer Research Center in Heidelberg, Germany. Cells were cultured in a standard DMEM medium from Sigma-Aldrich, supplemented with 10% fetal bovine serum, 2 mM glutamine, 100 U/mL penicillin, and 100 μg/mL streptomycin. Cultures were maintained under standard conditions (37 °C, 5% CO2, humidified atmosphere) and subcultured two to three times per week. We assessed the effect of 3-day compound treatments on cell viability using a resazurin reduction assay measuring mitochondrial activity. Approximately 5,000 cells in 80 μL of culture medium were seeded into the wells of a 96-well plate. Twenty-four hours later, 20 μL of 5-fold concentrated test compound solutions was added and tested across three concentrations prepared through 2-fold serial dilutions. The highest final concentration was 40 μM. After 72 h, we added an 11-fold concentrated resazurin solution to the wells, achieving a final concentration of 0.0125 μM. Fluorescence (ex = 570 nm, em = 610 nm) was measured after 3 h of incubation.
The disubstituted derivatives i-25 and i-27 were the most toxic in the set, causing around a 50% decrease in viability of HaCaT cells at 40 μM.

[8] = Visual inspection of DMSO stock solutions; type: physicochemical; details: 50 mM in DMSO, stored at −20 °C
Description: For bioassays, all compounds were dissolved in dimethyl sulfoxide (DMSO) to prepare 50 mM stock solutions. Stock solutions were stored at −20 °C and diluted in water or the appropriate media for each bioassay to achieve the final concentrations indicated below. Solubility was evaluated by visual inspection of stock solutions (assessing clarity or cloudiness) and by microscopic examination of media to detect potential crystal formation. The final DMSO concentrations in the bioassays were kept at levels that had no detectable impact on test organisms, as determined by comparison with water-treated controls (0.1% for cell cultures, 0.2% for nematodes, and 0.3% for Arabidopsis thaliana Col-0).

[9] = 10 µM group, initial (prior to the treatment)
[10] = 50 µM group, initial (prior to the treatment)
[11] = 100 µM group, initial (prior to the treatment)

For `O=C(O)Cc1c[nH]c2ccccc12` [Indole-3-acetic acid], the LC50 [1] is given as 117 µg/mL (≈ 668 µM).
Work on `CC(C)c1ccc(-c2ccc3[nH]ccc3c2)cc1` [i-17] yielded an IC50 [2] of 7.6 ± 2.3 µM, an average activity counts [3, 9] of 228 and an average activity counts ([3]; 10 µM, 48 h) of 211. For the same molecule, the average activity counts ([3]; 10 µM, 72 h) was 212, the average activity counts [3, 10] was 228 and the average activity counts ([3]; 50 µM, 48 h) was 223. For the same molecule, the average activity counts ([3]; 50 µM, 72 h) was 224, the average activity counts [3, 11] was 245 and the average activity counts ([3]; 100 µM, 48 h) was 206. The average activity counts ([3]; 100 µM, 72 h) was 212, the average activity counts [4, 9] was 178 and the average activity counts ([4]; 10 µM, 48 h) was 160. It also gave an average activity counts ([4]; 10 µM, 72 h) of 139, an average activity counts [4, 10] of 181 and an average activity counts ([4]; 50 µM, 48 h) of 158. For the same molecule, the average activity counts ([4]; 50 µM, 72 h) was 158, the average activity counts [4, 11] was 197 and the average activity counts ([4]; 100 µM, 48 h) was 158. The average activity counts ([4]; 100 µM, 72 h) was 122, the “average fraction of germinated seeds” value ([5]; 5 µM) was 0.95 and the main root length ([5]; 5 µM) was 38.83 mm. The plant weight ([5]; 5 µM) was 35.01 mg, the “average fraction of germinated seeds” value ([5]; 10 µM) was 0.98 and the main root length ([5]; 10 µM) was 37.53 mm. The plant weight ([5]; 10 µM) was 28.28 mg, the “average fraction of germinated seeds” value ([5]; 50 µM) was 0.89 and the main root length ([5]; 50 µM) was 31.19 mm. For the same molecule, the plant weight ([5]; 50 µM) was 26.18 mg, the “Average viability (signal intensity relative to control)” value ([6]; 10 µM) was 0.9 ± 0.01 and the “Average viability (signal intensity relative to control)” value ([6]; 20 µM) was 0.92 ± 0.05. For the same molecule, the “Average viability (signal intensity relative to control)” value ([6]; 40 µM) was 0.82 ± 0.07, the “Average viability (signal intensity relative to control)” value ([7]; 10 µM) was 0.98 ± 0.01 and the “Average viability (signal intensity relative to control)” value ([7]; 20 µM) was 0.99 ± 0.01. For the same molecule, the “Average viability (signal intensity relative to control)” value ([7]; 40 µM) was 0.87 ± 0.04 and the “stability of stock solutions” value [8] was “precipitation of stock solutions after a single freeze–thaw cycle”.
